In patent US7554012B2, “Plants and plant cells exhibiting resistance to AMPA, and methods for making the same” (priority 1998, dated 2009):
Several values for one entry are separate records, joined by “and”; a condition that tells them apart may be missing. Identical values can stand only once.

Experiments:
Tobacco callus = Tobacco callus growth on plates with AMPA or N-acetyl AMPA; type: cell-based, Nicotiana tabacum cv. "Samsun"; details: plates with 0.1 mM or 0.4 mM, up to three weeks
Method: Tobacco callus was generated from leaf pieces of wild type Nicotiana tabacum cv. “Samsun” tobacco on MS104 plates (MS salts 4.3 g/l, sucrose 30 g/l, B5 vitamins 500X 2 ml/l, NAA 0.1 mg/l, and Bacto Agar […]). Callus tissue was applied to plates with or without AMPA and with or without N-acetyl AMPA. Plates contained AMPA or N-acetyl AMPA at concentrations of 0.1 mM or 0.4 mM. Plates were incubated for up to three weeks and monitored periodically.

[1] = system: Achromobacter sp. strain LBAA; assay: Glyphosate degradation pathway in resting cells
Method: The glyphosate degradation pathway was characterized in resting cells of glyphosate-grown Achromobacter sp. strain LBAA according to the following procedure. Cells from a 100 ml culture of LBAA, grown in DF3S medium containing glucose, gluconate and citrate as carbon sources and with thiamine and Yeast Extract (0.01%) to supply trace requirements and with glyphosate at 0.2 mM as a phosphorous source, were harvested at a cell density of 200 Klett units, washed twice with 20 ml of DF3S medium and the equivalent of 20 ml of cells were resuspended in […] of the same medium containing [^14C]glyphosate (2.5 ml of 52 mCi/mmol, Amersham; CFA.745). The cell mix was incubated at 30° C. with shaking and 20 ml samples were withdrawn at various intervals. The samples were centrifuged to separate the cells from the broth supernatant. Both the supernatant and cell pellets were analyzed by HPLC.
Samples prepared in this way were analyzed by strong anion exchange (SAX) HPLC with radioisotope label detection to determine their levels of [^14C]-AMPA and N-acetyl-[^14C]-AMPA. Samples were injected using a Waters WISP autoinjector. Chromatographic profiles and quantitative data were collected using MACS2, Monsanto's automated chromatography data collection system. A Spherisorb S5 SAX, 250 mm×10 mm column, or an Alltech 5 micron, 250 mm×10 mm SAX column was used for the analyses. Solvents used were designated as solution A and solution B. Solution A contained 0.005M KH2PO4 adjusted to pH 2.0 with H3PO4 in 4% methanol. Solution B contained 0.10 M KH2PO4 adjusted to pH 2.0 with H3PO4 in 4% methanol. Each sample run time consisted of a step gradient program with an eluent flow rate of 3 ml per minute and a scintillation fluid (tradename ATOMFLOW, No. NEN-995 obtained from Packard Instruments) flow rate of 9 ml per minute. The HPLC solvent profile for distinguishing [^14C]-AMPA from N-acetyl-[^14C]-AMPA in each sample analyzed was represented by 100% solvent A at times zero through 5 minutes, then solvent B at 100% at time 5 minutes through 15 minutes, then 100% solvent A through 20 minutes at which time the column is prepared to receive another sample.
Cell pellets were first resuspended in DF3S medium made acidic by addition of 0.65N HCl, boiled for 5 minutes, then centrifuged briefly to provide a solution phase for HPLC analysis. Supernatants were treated similarly prior to HPLC analysis.
The GOX mediated glyphosate degradation pathway was elucidated further in a subsequent experiment where the metabolism of [^14C]AMPA was compared to that of [^14C]glyphosate as indicated above in resting cells harvested at 165 Klett units and resuspended at the equivalent of 15 ml cells per 100 ml DF3S medium. The samples were analyzed by HPLC and consisted of whole cultures acidified and treated as described above.

Wheat immature embryos = assay: Wheat embryo germination assay; type: in vivo; details: for Germinating root length / Germinating shoot length: ten days
Method: Wheat immature embryos were exposed to different concentrations of AMPA and N-acetyl-AMPA in a wheat embryo germination assay. MMSO base media was prepared containing 40 grams per liter maltose, 2 grams per liter GELRITE™, MS salts, and vitamins. Salts, vitamins, and maltose were dissolved in 3500 ml water and the pH was adjusted to 5.8. 500 ml was dispensed into a separate bottle along with 1 gram of GELRITE™ and autoclaved for 17 minutes. After the medium had cooled to about 45° C., AMPA or N-acetyl-AMPA was added to a defined concentration. The mixture was poured into six square Sundae cups under sterile conditions and allowed to solidify.
Immature wheat embryos were isolated from twenty day old seedlings (after anther formation) and inoculated into each MMSO media. Each Sundae cup contained nine immature embryo's. Three separate plates were used for each concentration of AMPA (0, 0.1, 0.15, 0.2, 0.25, 0.3, and 1.0 mM) or N-acetyl-AMPA (0, 0.1, 0.3, 1.0, and 3.0 mM). Sundae cups were incubated for ten days and the length of roots and shoots were determined and compared.

[2] = system: recombinant cotton line 4416; assay: [^14C]-glyphosate metabolism in cotton line 4416; type: in vivo, cotton (Gossypium hirsutum L.); details: line 4416 plants; listed as [^14C]-Glyphosate
Method: Coker 312 glyphosate resistant recombinant cotton line 4416 was selected as a glyphosate resistant cotton line after transformation with pMON10149, a triple gene Agrobacterium tumefaciens mediated double border plant transformation vector containing chloroplast targeted EPSPS, GOX, and PhnO, each expressed independently from separate 35S promoters. Several 4416 R3 plants were raised from R2 seed. One leaf of each plantlet at the three or four stage was treated with a mixture of ROUNDUP ULTRA™ commercial herbicide mixture (Lot No. GLP-9701-7428-F) which had been fortified with [^14C]-glyphosate (Code No. C-2251). […] The treatment solution consisted of approximately 38 μL containing 1.60×10^6 dpm with a [^14C]-glyphosate specific activity of 1.713×10^3 dpm/μg glyphosate acid. Three or seven days after topical application the treated leaves were rinsed with water, frozen in liquid nitrogen, fractured with a spatula and then ground using a TEKMAR™ tissuemizer in 10 mL of water. The leaf extracts were adjusted to pH 3.5-4.0 with 1N HCl and approximately 4-8000 dpm were analyzed for the presence of [^14C]-metabolites by HPLC with liquid scintillation vial collection and detection (HPLC/LSC) as described in example 2. The new growth including the meristem and new leaves that emerged following topical application were also extracted and analyzed for [^14C]-metabolites.

[3] = whole cultures exposed two hours

## NCP(=O)(O)O [AMPA, N-aminomethyl phosphonic acid]
Tobacco callus
  growth of tobacco callus tissue: severely inhibited
[1]; [3]
  label as AMPA: 59%
  label in the 13.2 minute peak (N-acetyl-AMPA): 18%
  label in the methylamine/N-acetyl-methylamine peak: 15%
Wheat immature embryos; 0.10 mM
  Germinating root length: 8.0 ± 2.0 cm
  Germinating shoot length: 11.7 ± 2.5 cm
Wheat immature embryos; 0.15 mM
  Germinating root length: 6.3 ± 1.7 cm
  Germinating shoot length: 11.3 ± 2.1 cm
Wheat immature embryos; 0.20 mM
  Germinating root length: 4.6 ± 2.1 cm
  Germinating shoot length: 9.2 ± 1.8 cm
Wheat immature embryos; 0.25 mM
  Germinating root length: 3.1 ± 1.6 cm
  Germinating shoot length: 8.5 ± 1.8 cm
Wheat immature embryos; 0.30 mM
  Germinating root length: 2.6 ± 1.6 cm
  Germinating shoot length: 6.6 ± 1.8 cm
Wheat immature embryos; 1.00 mM
  germination of immature embryos: eliminated the germination
  Germinating root length: 0.4 ± 0.1 cm
  Germinating shoot length: 0.9 ± 0.1 cm
Wheat immature embryos; in vivo
  concentrations not substantially inhibitory to growth and elongation of immature embryos: under 0.2 mM
  concentrations severely inhibitory to both shoot and root elongation: above 0.2 mM

## N-phosphono-methyl-glycine [Glyphosate]
[1]; two hours incubation
  glyphosate found within the cell: About 3%
  material co-eluting with the methylamine standard, of initial radioactivity in the cell contents: about 1.5%
  material co-eluting with the methylamine standard, of initial radioactivity in the supernatant: about 5%
  radioactivity in the glyphosate peak remaining in the supernatant, of the initial levels: about 33%
[1]; [3]
  label as AMPA: 12.5%
  label as glyphosate: 30%
  label in the 13.2 minute peak (N-acetyl-AMPA): 30%
  label in the methylamine/N-acetyl-methylamine peak: 25%
[2]
  % [^14C] metabolite in Glyphosate Treated Leaf Extract: AMPA: 2.1% and 2.0% and 1.6% and 2.2% and 2.5%
  % [^14C] metabolite in Glyphosate Treated Leaf Extract: N-Acetyl-AMPA: 27-74%
  % [^14C] metabolite in New Growth Extract: AMPA: 0.2% and 0.5% and 2.5%
  % [^14C] metabolite in New Growth Extract: Glyphosate: greater than 90%
  % [^14C] metabolite in New Growth Extract: N-Acetyl AMPA: greater than 90%
